{"source": "patent US11524960B2", "about": "“Heterobicyclic inhibitors of MAT2A and methods of use for treating cancer” (AGIOS PHARMACEUTICALS, INC., priority 2018, dated 2022)", "key": {"MAT2A homodimer": {"biological_target": "T1, MAT2A homodimer (Homo sapiens, UniProt P31153)", "T1 construct": "inferred from Ni sepharose purification and imidazole elution; made in house; host or cells: Sf9 insect cells, recombinant baculovirus (Bac to Bac, pFASTBAC1)", "T1 sequence (P31153 whole entry)": "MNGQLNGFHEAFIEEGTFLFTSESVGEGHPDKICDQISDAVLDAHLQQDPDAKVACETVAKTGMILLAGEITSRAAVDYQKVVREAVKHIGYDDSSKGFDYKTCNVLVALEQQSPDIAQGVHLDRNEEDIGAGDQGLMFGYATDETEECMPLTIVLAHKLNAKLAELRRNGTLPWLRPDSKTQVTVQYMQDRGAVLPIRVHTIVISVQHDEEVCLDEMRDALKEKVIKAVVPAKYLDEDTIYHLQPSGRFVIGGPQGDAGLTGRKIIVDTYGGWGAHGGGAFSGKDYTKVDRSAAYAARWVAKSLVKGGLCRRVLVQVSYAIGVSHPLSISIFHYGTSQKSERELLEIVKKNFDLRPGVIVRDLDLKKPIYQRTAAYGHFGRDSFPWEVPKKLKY", "assay": "Biochemical assay: inhibition of MAT2A (phosphate release, PiColorLock Gold)", "settings": "MAT2A IC50 score; read-out: Enzyme Inhibition (Example 275)", "procedure,_shortened": "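Phosphate formed alongside SAM was read with PiColorLock Gold and quantified against a potassium phosphate standard curve. Reactions ran 60 min at 25 °C after adding a substrate mix of 500 μM ATP and 400 μM L-methionine (mix concentrations). Compound had first been preincubated 60 min with recombinant Sf9-derived MAT2A homodimer ([…]) in pH 8.0 Tris buffer containing MgCl2, KCl, EDTA and BSA.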"}, "[1]": {"system": "SAM in HCT116 human colon carcinoma cell line engineered to delete the MTAP gene (MTAP −/−)", "assay": "Cellular assay of target engagement (SAM) by LC-MS/MS", "format": "cell-based", "settings": "Homo sapiens, HCT-116, 72 h, IC50 score, read-out: Cell 72 h SAM Inhibition (MTAP −/−; Example 276)", "description": "Measurement of MAT2A activity in cells was made by direct quantitation of the abundance of the product of its enzymatic activity, SAM. Cancer cells were treated with candidate MAT2A inhibitors for a suitable incubation period, and the cells were then lysed using a reagent which quenched any further enzyme activity. Soluble metabolites including SAM were collected and SAM itself was directly measured from the lysate using quantitative LC-MS/MS.\nA typical assay was performed using an HCT116 human colon carcinoma cell line which was genetically engineered to delete the MTAP gene (commercially available from Horizon Discovery). This cell line was utilized because it was determined that loss of the MTAP gene predicts sensitivity to MAT2A inhibitors. Cells were plated in 96-well dishes at appropriate cell density. Following 24 hours, cells were then treated with the candidate MAT2A inhibitor. Prior to addition to cells, the compound was first serially diluted in 100% DMSO, typically as a 3-fold serial dilution starting at 500× top dose with 10 dose points including DMSO only control. Compound was then transferred to a working stock plate in cell culture media by adding 5 μl of compound in DMSO to 495 μl of cell culture media. This working stock was then added to cells via a further 5-fold dilution, by adding 25 μl of working stock to 100 μl of cells in culture media. Following compound addition, cells were incubated at 37° C./5% CO2 for 72 hrs.\nTo quantitate SAM levels following compound treatment, cells were gently washed once in Ammonium Carbonate buffer (75 mM at pH 7.4), placed on dry ice, and lysed with metabolite extraction buffer (80% cold methanol and 20% water (v/v) with acetic acid at 1 M final concentration with 200 ng/mL deuterated d3-SAM as internal control). Following centrifugation at 4° C. at 3,200 rpm for 30 minutes, the supernatant was collected and stored at −80° C. until analysis by Liquid Chromatography with tandem Mass Spectrometry (LC-MS/MS). LC-MS/MS analysis was performed using an API6500 Mass Spectrometer (Sciex, Framingham, Mass., USA) operating in positive ion spray mode and equipped with a Waters UPLC Acquity (Waters, Milford, Mass., USA) BEH Amide column. Multiple Reaction Monitoring data was acquired for SAM and the d3-SAM standard, using a mass transition pair at m/z 399.2→250.1 and 402.2→250.1, respectively. In a typical LC-MS/MS analysis, the initial flow rate was 0.5 ml/min of 25% mobile phase A (acetonitrile and water at 5:95 (v/v) with 1% formic acid and 10 mM ammonium acetate) and 75% mobile phase B (acetonitrile and water at 95:5 (v/v) with 1% formic acid and 10 mM ammonium acetate), 0.2-0.5 minutes with 75%-35% mobile phase B, 25%-65% mobile phase A, at 0.5 min 65% mobile phase A and 35% mobile phase B, 1.0-1.1 minutes with 35%-75% mobile phase B, 65%-25% mobile phase A, at 1.1 min 25% mobile phase A and 75% mobile phase B with a total run time of 1.5 minutes."}, "HCT116 MTAP−/−": {"system": "HCT116 MTAP−/−", "assay": "Inhibition of cellular proliferation (Cell Titer Glo), HCT116 MTAP−/−", "format": "cell-based, human", "settings": "Homo sapiens, HCT-116, 96 h, 4 days, IC50 score, read-out: 4 Day Relative Growth Inhibition (MTAP −/−; Example 277)", "description": "(§1) Test compound impact on cancer cell growth was assessed by treating cancer cells with compound for 4 days and then measuring proliferation using an ATP-based cell proliferation readout (Cell Titer Glo, Promega Corporation).\n(§2) In a typical assay an isogenic pair of HCT116 human colon carcinoma cell lines which vary only in MTAP deletion status (HCT116 MTAP+/+ and HCT116 MTAP−/−) were plated in 96-well dishes at appropriate cell density. Following 24 hours, cells were then treated with the candidate MAT2A inhibitor. Prior to addition to cells, the compound was first serially diluted in 100% DMSO, typically as a 3-fold serial dilution starting at 500× top dose with 10 dose points including DMSO only control. Compound was then transferred to a working stock plate in cell culture media by adding 5 μl of compound in DMSO to 495 μl of cell culture media. This working stock was then added to cells via a further 5-fold dilution, by adding 25 μl of working stock to 100 μl of cells in culture media. Following compound addition, cells were incubated at 37° C./5% C02 for 4 days.\n(§3) To measure inhibition of cellular proliferation, cells were allowed to equilibrate to room temperature for 30 minutes, and were then treated with 125 μl of Cell Titer Glo reagent. The plate was then covered with aluminum foil and shaken for 15 minutes to ensure complete mixing and full cell lysis. Luminescent signal was then measured using a plate-based luminometer Veritas version 1.9.2 using ATP standard curve to confirm assay reproducibility from run to run. This luminescence measure was converted to a proliferation index by subtracting from each data point the ATP luminescence signal measured from a bank (no cells) well and dividing by the ATP luminescence signal measured in 0.2% DMSO control well adjusted for signal in blank well. Compound activity was then represented as a percentage change in proliferation relative to a within-plate DMSO control against log10 of compound concentration in molar (M) units."}, "HCT116 MTAP+/+": {"system": "HCT116 MTAP+/+", "assay": "Inhibition of cellular proliferation (Cell Titer Glo), HCT116 MTAP+/+", "format": "cell-based, human", "settings": "Homo sapiens, HCT-116, 96 h, 4 days, IC50 score, read-out: 4 Day Relative Growth Inhibition (MTAP +/+; Example 277)", "description": "as §1, §2, §3"}}, "data": [{"smiles": "CCOc1ccc2cn(-c3ccc4nn(C)cc4c3)c(=O)c(-c3ccc(C4CC4)nc3)c2n1", "note": "[Example 221, 8-(6-cyclopropylpyridin-3-yl)-2-ethoxy-6-(2-methyl-2H-indazol-5-yl)-1,6-naphthyridin-7(6H)-one]", "values": [{"measurement": "IC50", "setting": "MAT2A homodimer", "result": "< 100", "unit": "nM"}, {"measurement": "IC50", "setting": "[1]", "result": "< 100", "unit": "nM"}, {"measurement": "IC50", "setting": "HCT116 MTAP−/−", "result": "100 to 10000", "unit": "nM"}, {"measurement": "IC50", "setting": "HCT116 MTAP+/+", "result": "> 10000", "unit": "nM"}]}, {"smiles": "CCOc1ccc2cn(-c3ccc4nn(C)cc4c3)c(=O)c(-c3ccc(-c4c[nH]cn4)cc3)c2n1", "note": "[Example 224, 8-(4-(1H-imidazol-4-yl)phenyl)-2-ethoxy-6-(2-methyl-2H-indazol-5-yl)-1,6-naphthyridin-7(6H)-one]", "values": [{"measurement": "IC50", "setting": "MAT2A homodimer", "result": "< 100", "unit": "nM"}, {"measurement": "IC50", "setting": "[1]", "result": "100 to 1000", "unit": "nM"}, {"measurement": "IC50", "setting": "HCT116 MTAP−/−", "result": "> 10000", "unit": "nM"}, {"measurement": "IC50", "setting": "HCT116 MTAP+/+", "result": "> 10000", "unit": "nM"}]}, {"smiles": "COc1ccc(-n2cc3cnc(NCC(F)(F)F)nc3c(-c3ccc(C4CC4)nc3)c2=O)cc1", "note": "[Example 198, 8-(6-cyclopropylpyridin-3-yl)-6-(4-methoxyphenyl)-2-((2,2,2-trifluoroethyl)amino)pyrido[4,3-d]pyrimidin-7(6)-one]", "values": [{"measurement": "IC50", "setting": "MAT2A homodimer", "result": "< 100", "unit": "nM"}, {"measurement": "IC50", "setting": "[1]", "result": "100 to 1000", "unit": "nM"}, {"measurement": "IC50", "setting": "HCT116 MTAP−/−", "result": "100 to 10000", "unit": "nM"}, {"measurement": "IC50", "setting": "HCT116 MTAP+/+", "result": "> 10000", "unit": "nM"}]}, {"smiles": "Cn1cc2cc(-n3cc4cnc(OCC(F)(F)F)nc4c(-c4ccc(OC(F)F)cc4)c3=O)ccc2n1", "note": "[Example 265, 8-(4-(difluoromethoxy)phenyl)-6-(2-methyl-2H-indazol-5-yl)-2-(2,2,2-trifluoroethoxy)pyrido[4,3-d]pyrimidin-7(6H)-one]", "values": [{"measurement": "IC50", "setting": "MAT2A homodimer", "result": "< 100", "unit": "nM"}, {"measurement": "IC50", "setting": "[1]", "result": "< 100", "unit": "nM"}, {"measurement": "IC50", "setting": "HCT116 MTAP−/−", "result": "< 100", "unit": "nM"}, {"measurement": "IC50", "setting": "HCT116 MTAP+/+", "result": "> 10000", "unit": "nM"}]}, {"smiles": "O=c1c(-c2ccc(OC(F)F)cc2)c2nc(NCC(F)(F)F)ncc2cn1-c1ccc2ncccc2c1", "note": "[Example 159, 8-(4-(difluoromethoxy)phenyl)-6-(quinolin-6-yl)-2-((2,2,2-trifluoroethyl)amino)pyrido[4,3-d]pyrimidin-7(6H)-one]", "values": [{"measurement": "IC50", "setting": "MAT2A homodimer", "result": "< 100", "unit": "nM"}, {"measurement": "IC50", "setting": "[1]", "result": "< 100", "unit": "nM"}, {"measurement": "IC50", "setting": "HCT116 MTAP−/−", "result": "< 100", "unit": "nM"}, {"measurement": "IC50", "setting": "HCT116 MTAP+/+", "result": "100 to 10000", "unit": "nM"}]}, {"smiles": "CCOc1ccc2cn(-c3ccc(=O)n(CCS(C)(=O)=O)c3)c(=O)c(-c3ccc(OC(F)F)cc3)c2n1", "note": "[Example 249, 8-(4-(difluoromethoxy)phenyl)-2-ethoxy-6-(1-(2-(methylsulfonyl)ethyl)-6-oxo-1,6-dihydropyridin-3-yl)-1,6-naphthyridin-7(6H)-one]", "values": [{"measurement": "IC50", "setting": "MAT2A homodimer", "result": "< 100", "unit": "nM"}, {"measurement": "IC50", "setting": "[1]", "result": "< 100", "unit": "nM"}, {"measurement": "IC50", "setting": "HCT116 MTAP−/−", "result": "100 to 10000", "unit": "nM"}, {"measurement": "IC50", "setting": "HCT116 MTAP+/+", "result": "100 to 10000", "unit": "nM"}]}, {"smiles": "CCOc1ccc2cn(-c3ccc4ncn(C)c4c3)c(=O)c(-c3ccc(NC)nc3)c2n1", "note": "[Example 111-A]", "values": [{"measurement": "IC50", "setting": "MAT2A homodimer", "result": "< 100", "unit": "nM"}, {"measurement": "IC50", "setting": "[1]", "result": "< 100", "unit": "nM"}, {"measurement": "IC50", "setting": "HCT116 MTAP−/−", "result": "< 100", "unit": "nM"}, {"measurement": "IC50", "setting": "HCT116 MTAP+/+", "result": "100 to 10000", "unit": "nM"}]}, {"smiles": "Cn1cnc2ccc(-n3cc4ccc(OCC(F)(F)F)nc4c(-c4ccc(C5CC5)nc4)c3=O)cc21", "note": "[Example 120-A]", "values": [{"measurement": "IC50", "setting": "MAT2A homodimer", "result": "< 100", "unit": "nM"}, {"measurement": "IC50", "setting": "[1]", "result": "< 100", "unit": "nM"}, {"measurement": "IC50", "setting": "HCT116 MTAP−/−", "result": "< 100", "unit": "nM"}, {"measurement": "IC50", "setting": "HCT116 MTAP+/+", "result": "100 to 10000", "unit": "nM"}]}, {"smiles": "O=c1c(-c2ccc(OC(F)F)cc2)c2nc(NC3CCC3)ncc2cn1-c1ccc2ncccc2c1", "note": "[Example 183, 2-(cyclobutylamino)-8-(4-(difluoromethoxy)phenyl)-6-(quinolin-6-yl)pyrido[4,3-d]pyrimidin-7(6)-one]", "values": [{"measurement": "IC50", "setting": "MAT2A homodimer", "result": "< 100", "unit": "nM"}, {"measurement": "IC50", "setting": "[1]", "result": "100 to 1000", "unit": "nM"}, {"measurement": "IC50", "setting": "HCT116 MTAP−/−", "result": "100 to 10000", "unit": "nM"}, {"measurement": "IC50", "setting": "HCT116 MTAP+/+", "result": "> 10000", "unit": "nM"}]}]}
